Laboratory results reported in patent US20180185408A1, “ANTIFUNGAL NYLON-3 POLYMERS AND COMBINATION THERAPY USING THEM TO TREAT FUNGAL INFECTIONS” (priority 2016, published 2018).
Values after ≈ are worked out from the molar mass of the structure shown. Read-outs that look alike come from different tables or passages of the source.

Tests used:
Type in all cases: cell-based
Candida lusitaniae [1] = test: MIC by broth microdilution (CLSI M27-A3)
Candida lusitaniae [2] = test: Minimum fungicidal concentration (MFC), plating after MIC assay; details: C. Lusitania (CL3), Sensitive; RPMI 1640 (0.2% Glucose); […]10^5 cells/mL; 30° C.
Candida albicans [3] = test: as above; details: […]10^5 cells/mL
Cryptococcus neoformans = test: as above; details: RPMI 1640 (0.2% Glucose), […]10^3 cells/mL, 37° C.
Candida albicans [4] = test: MIC by broth microdilution (CLSI M27-A3)

C[C@@H]1[C@H](O)[C@@H](C)/C=C/C=C/C=C/C=C/C=C/C=C/C=C/[C@H](O[C@@H]2O[C@H](C)[C@@H](O)[C@H](N)[C@@H]2O)C[C@@H]2O[C@](O)(C[C@@H](O)C[C@@H](O)[C@H](O)CC[C@@H](O)C[C@@H](O)CC(=O)O[C@H]1C)C[C@H](O)[C@H]2C(=O)O [AMB, amphotericin B]
MIC (Candida lusitaniae [1]; C. Lusitania (CL3), Sensitive, RPMI 1640 (0.2% Glucose), […]10^5 cells/mL, 30° C.): 0.4 µg/mL | MIC (Candida lusitaniae [1]; C. lusitaniae (CL3), […]10^3 cells/mL, 35°C, read-out: MIC): 0.4 µM | MIC (Candida lusitaniae [1]; CL3, […]10^3 cells/mL, 35°C, OD600 24 h, avg.): <1.6 µg/mL | MIC (Candida lusitaniae [1]; CL3, […]10^3 cells/mL, 35°C, OD600 24 h, avg., read-out: MIC): <1.7 µM | MIC (Candida lusitaniae [1]; CL3, […]10^3 cells/mL, 35°C, OD600 24 h, trial 1): <1.6 µg/mL | MIC (Candida lusitaniae [1]; CL3, […]10^3 cells/mL, 35°C, OD600 24 h, trial 1, read-out: MIC): <1.7 µM | MIC (Candida lusitaniae [1]; CL3, […]10^3 cells/mL, 35°C, OD600 24 h, trial 2): <1.6 µg/mL | MIC (Candida lusitaniae [1]; CL3, […]10^3 cells/mL, 35°C, OD600 24 h, trial 2, read-out: MIC): <1.7 µM | MIC (Candida lusitaniae [1]; CL3, […]10^5 cells/mL, 30°C, OD600 48 h, avg.): 0.4 µg/mL | MIC (Candida lusitaniae [1]; CL3, […]10^5 cells/mL, 30°C, OD600 48 h, avg., read-out: MIC): 0.4 µM | MIC (Candida lusitaniae [1]; CL3, […]10^5 cells/mL, 30°C, OD600 48 h, trial 1): 0.4 µg/mL | MIC (Candida lusitaniae [1]; CL3, […]10^5 cells/mL, 30°C, OD600 48 h, trial 1, read-out: MIC): 0.4 µM | MIC (Candida lusitaniae [1]; CL3, […]10^5 cells/mL, 30°C, OD600 48 h, trial 2): 0.4 µg/mL | MFC (Candida lusitaniae [2]): 1.56 µg/mL (≈ 1.69 µM) | MFC (Candida albicans [3]; C. albicans (E4), Amp B Resistant, RPMI 1640 (0.2% Glucose), 30° C.): 12.5 µg/mL | MFC (Candida albicans [3]; C. albicans (Gu5), Fluconazole Resistant, RPMI 1640 (0.2% Glucose), 30° C.): 1.56 µg/mL | MFC (Candida albicans [3]; C. albicans (K1), Fluconazole Resistant, RPMI 1640 (0.2% Glucose), 30° C.): 3.13 µg/mL | MFC (Candida albicans [3]; C. albicans (SCG5314), Sensitive, RPMI 1640 (0.2% Glucose), 30° C.): 1.56 µg/mL | MFC (Candida albicans [3]; E4, 30°C, avg.): 12.5 µg/mL | MFC (Candida albicans [3]; E4, 30°C, avg., read-out: MFC): 13.5 µM | MFC (Candida albicans [3]; E4, 30°C, trial 1): 12.5 µg/mL | MFC (Candida albicans [3]; E4, 30°C, trial 1, read-out: MFC): 13.5 µM | MFC (Candida albicans [3]; E4, 30°C, trial 2): 12.5 µg/mL | MFC (Candida albicans [3]; E4, 30°C, trial 2, read-out: MFC): 13.5 µM | MFC (Candida albicans [3]; Gu5, 30°C, avg.): 1.6 µg/mL | MFC (Candida albicans [3]; Gu5, 30°C, avg., read-out: MFC): 1.7 µM | MFC (Candida albicans [3]; Gu5, 30°C, trial 1): 1.6 µg/mL | MFC (Candida albicans [3]; Gu5, 30°C, trial 1, read-out: MFC): 1.7 µM | MFC (Candida albicans [3]; Gu5, 30°C, trial 2): 1.6 µg/mL | MFC (Candida albicans [3]; Gu5, 30°C, trial 2, read-out: MFC): 1.7 µM | MFC (Candida albicans [3]; K1, 30°C, avg.): 3.1 µg/mL | MFC (Candida albicans [3]; K1, 30°C, avg., read-out: MFC): 3.4 µM | MFC (Candida albicans [3]; K1, 30°C, trial 1): 3.1 µg/mL | MFC (Candida albicans [3]; K1, 30°C, trial 1, read-out: MFC): 3.4 µM | MFC (Candida albicans [3]; K1, 30°C, trial 2): 3.1 µg/mL | MFC (Candida albicans [3]; K1, 30°C, trial 2, read-out: MFC): 3.4 µM | MFC (Candida albicans [3]; SC5314, 30°C, avg.): 1.6 µg/mL | MFC (Candida albicans [3]; SC5314, 30°C, avg., read-out: MFC): 1.7 µM | MFC (Candida albicans [3]; SC5314, 30°C, trial 1): 1.6 µg/mL | MFC (Candida albicans [3]; SC5314, 30°C, trial 1, read-out: MFC): 1.7 µM | MFC (Candida albicans [3]; SC5314, 30°C, trial 2): 1.6 µg/mL | MFC (Candida albicans [3]; SC5314, 30°C, trial 2, read-out: MFC): 1.7 µM | MFC (Cryptococcus neoformans; C. neoformans (B3501), Sensitive): 0.8 µg/mL (≈ 0.866 µM) | MFC (Cryptococcus neoformans; C. neoformans (C21F3), Rapamycin Resistant): 0.8 µg/mL (≈ 0.866 µM) | MFC (Cryptococcus neoformans; C. neoformans (H99), Sensitive): 1.6 µg/mL (≈ 1.73 µM) | MFC (Cryptococcus neoformans; C. neoformans (JEC21), Sensitive): 0.4 µg/mL (≈ 0.433 µM) | MIC (Candida albicans [4]; C. albicans (E4), Amp B Resistant, RPMI 1640 (0.2% Glucose), […]10^5 cells/mL, 30° C.): 3.13 µg/mL | MIC (Candida albicans [4]; C. albicans (E4), […]10^3 cells/mL, 35°C, read-out: MIC): 3.4 µM | MIC (Candida albicans [4]; C. albicans (Gu5), Fluconazole Resistant, RPMI 1640 (0.2% Glucose), […]10^5 cells/mL, 30° C.): 0.78 µg/mL | MIC (Candida albicans [4]; C. albicans (Gu5), […]10^3 cells/mL, 35°C, read-out: MIC): 0.9 µM | MIC (Candida albicans [4]; C. albicans (K1), Fluconazole Resistant, RPMI 1640 (0.2% Glucose), […]10^5 cells/mL, 30° C.): 0.78 µg/mL | MIC (Candida albicans [4]; C. albicans (K1), […]10^3 cells/mL, 35°C, read-out: MIC): 1.7 µM | MIC (Candida albicans [4]; C. albicans (SC5314), […]10^3 cells/mL, 35°C, read-out: MIC): 0.9 µM | MIC (Candida albicans [4]; C. albicans (SCG5314), Sensitive, RPMI 1640 (0.2% Glucose), […]10^5 cells/mL, 30° C.): 0.78 µg/mL | MIC (Candida albicans [4]; E4, […]10^3 cells/mL, 35°C, OD600 24 h, avg.): 6.3 µg/mL | MIC (Candida albicans [4]; E4, […]10^3 cells/mL, 35°C, OD600 24 h, avg., read-out: MIC): 6.8 µM | MIC (Candida albicans [4]; E4, […]10^3 cells/mL, 35°C, OD600 24 h, trial 1): 6.3 µg/mL | MIC (Candida albicans [4]; E4, […]10^3 cells/mL, 35°C, OD600 24 h, trial 1, read-out: MIC): 6.8 µM | MIC (Candida albicans [4]; E4, […]10^3 cells/mL, 35°C, OD600 24 h, trial 2): 6.3 µg/mL | MIC (Candida albicans [4]; E4, […]10^3 cells/mL, 35°C, OD600 24 h, trial 2, read-out: MIC): 6.8 µM | MIC (Candida albicans [4]; E4, […]10^5 cells/mL, 30°C, OD600 48 h, avg.): 3.1 µg/mL | MIC (Candida albicans [4]; E4, […]10^5 cells/mL, 30°C, OD600 48 h, avg., read-out: MIC): 3.4 µM | MIC (Candida albicans [4]; E4, […]10^5 cells/mL, 30°C, OD600 48 h, trial 1): 3.1 µg/mL | MIC (Candida albicans [4]; E4, […]10^5 cells/mL, 30°C, OD600 48 h, trial 1, read-out: MIC): 3.4 µM | MIC (Candida albicans [4]; E4, […]10^5 cells/mL, 30°C, OD600 48 h, trial 2): 3.1 µg/mL
